From patent US20230210803A1, “TRANS-CROCETIN COMPOSITIONS AND TREATMENT REGIMENS” (L.E.A.F. HOLDINGS GROUP LLC, priority 2020, published 2023) come the findings set out here.

For series [1] the following is noted: mouse, in vivo, iv, 50 mg/kg.
Series [2] can be described thus: Liposomal CTC and MTC PK in mice. Further details: species or system Balb/c mice. The note with it: mouse, in vivo.
Method: 5 μL of each plasma sample was mixed with 395 μL methanol containing 1% formic acid. Sample mixtures were well mixed by vortexing. […] Samples were vortexed and then centrifuged at 10000 RPM for 10 min at room temperature. 200 μL of supernatant was removed from each sample without disturbing pellet and analyzed by HPLC. If the amount of plasma permitted, this analysis was duplicated.
The concentration of STC in the plasma samples was quantified by standard curve constructed by analyzing plasma samples containing known amount of STC. PK profiles were analyzed.
Series [3] is described as follows: PK of L4L-121 versus free TC in healthy mice. The note with it: mouse, in vivo, one intravenous injection 2.5 mg/kg (normalized to TC). An excerpt:
[…]. […] […]. […] […]

A further series relates to HUVECs. The series can be described thus: Reoxygenation of HUVECs under hypoxic conditions (BioTracker 520 Green Hypoxia Dye, flow cytometry). As to conditions: continuous hypoxic conditions (1% PO2). On the technique in general: In flow cytometry, cells or beads pass a laser one at a time.

Method for HUVECs: For quantification of the hypoxia levels, cells were then incubated for 1 h with 1.5 μM BioTracker 520 Green Hypoxia Dye (Sigma-Aldrich) before being washed and stored in the hypoxia chamber for 1 h. […] Hypoxia levels were quantified with a BD Accuri™ C6 cell analyzer with a direct read-out of the BioTracker probe. The results were analyzed with FlowJo software version 10 (TreeStar).

Consider `CC(/C=C/C=C(\C)C(=O)[O-])=C\C=C\C=C(C)\C=C\C=C(/C)C(=O)[O-].[Na+].[Na+]` [STC free drug, sodium trans-crocetinate], for which the T½ result in series [1] is “less than 0.5 h”. In addition, in series [2], the “half-life (t1/2)” value is “half an hour”.
As usually defined, the half-life is the time needed for the level to fall by half in the phase considered. A low value points to fast loss. What is called AUC is concentration integrated over time. In turn, `CC(/C=C/C=C(\C)C(=O)O)=C\C=C\C=C(C)\C=C\C=C(/C)C(=O)O` [free TC, trans-crocetin free acid] showed a half-life in series [3] of 37.1 min. The AUC in series [3] (read-out: exposure (AUC)) is 2700 ng·h/mL. Further, the “reoxygenation effect (PO2)” value with HUVECs (5 μg/mL TC, 30 min post-treatment) is listed as “up to 15 % PO2”. In the series with HUVECs (3 h after treatment), the “PO2 after loss of efficacy” value stood at 5 % PO2.
